Results taken from ChEMBL document CHEMBL4814035, “Structure-activity relationship studies of 3-substituted pyrazoles as novel allosteric inhibitors of MALT1 protease” (Bioorg Med Chem Lett, 2021).
Values belong to the molecule of their own block, whether it stands above or below them.

What was measured:
[1] = biological target: T1, Mucosa-associated lymphoid tissue lymphoma translocation protein 1 (Homo sapiens, UniProt Q9UDY8); test: Inhibition of MALT1 (unknown origin)
T1 sequence (Q9UDY8 whole entry): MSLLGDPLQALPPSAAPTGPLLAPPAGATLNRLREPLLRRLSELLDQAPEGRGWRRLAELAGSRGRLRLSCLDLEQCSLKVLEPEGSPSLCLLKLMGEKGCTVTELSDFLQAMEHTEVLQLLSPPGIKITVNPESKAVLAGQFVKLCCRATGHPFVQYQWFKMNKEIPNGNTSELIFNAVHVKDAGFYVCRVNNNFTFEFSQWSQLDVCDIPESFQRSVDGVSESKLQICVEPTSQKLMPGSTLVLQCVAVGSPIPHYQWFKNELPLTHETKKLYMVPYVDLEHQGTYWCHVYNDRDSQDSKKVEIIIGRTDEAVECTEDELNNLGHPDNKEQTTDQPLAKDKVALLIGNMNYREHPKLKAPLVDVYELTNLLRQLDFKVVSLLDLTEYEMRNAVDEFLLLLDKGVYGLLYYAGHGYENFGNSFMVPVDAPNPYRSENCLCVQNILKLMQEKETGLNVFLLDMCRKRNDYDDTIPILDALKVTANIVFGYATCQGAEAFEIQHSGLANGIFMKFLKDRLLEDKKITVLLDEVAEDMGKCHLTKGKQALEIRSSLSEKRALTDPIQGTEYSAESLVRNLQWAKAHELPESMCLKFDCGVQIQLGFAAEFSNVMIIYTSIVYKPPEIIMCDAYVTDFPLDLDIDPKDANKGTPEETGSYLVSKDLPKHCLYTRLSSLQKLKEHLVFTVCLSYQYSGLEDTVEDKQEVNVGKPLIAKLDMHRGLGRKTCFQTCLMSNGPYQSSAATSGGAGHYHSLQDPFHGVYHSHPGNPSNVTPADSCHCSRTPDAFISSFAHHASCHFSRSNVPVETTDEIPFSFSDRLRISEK

[2] = biological target: T2, Mucosa-associated lymphoid tissue lymphoma translocation protein 1 (Homo sapiens) (UniProt Q9UDY8); test: Inhibition of MALT1 (unknown origin) at 25 uM relative to control
T2 sequence (whole entry): T1 sequence (Q9UDY8 whole entry)

[3] = biological target: Nuclear factor NF-kappa-B complex (Homo sapiens, UniProt P19838+Q00653+Q04206); test: Inhibition of NF-kappaB (unknown origin); format: protein-complex assay
[4] = substrate: CN(C)CCNC(=O)c1cc(-c2ccc(Cl)cc2)n(-c2ccc(Cl)cc2)n1; settings: Homo sapiens; dose 0.5 µM
Description: Non-competitive inhibition of MALT1 (unknown origin) assessed as Michaelis-constant at 0.5 uM by Michaelis-Menten analysis (Rvb = 246.9 microM)

Sequence of Nuclear factor NF-kappa-B complex (P19838 1-433 limits assumed): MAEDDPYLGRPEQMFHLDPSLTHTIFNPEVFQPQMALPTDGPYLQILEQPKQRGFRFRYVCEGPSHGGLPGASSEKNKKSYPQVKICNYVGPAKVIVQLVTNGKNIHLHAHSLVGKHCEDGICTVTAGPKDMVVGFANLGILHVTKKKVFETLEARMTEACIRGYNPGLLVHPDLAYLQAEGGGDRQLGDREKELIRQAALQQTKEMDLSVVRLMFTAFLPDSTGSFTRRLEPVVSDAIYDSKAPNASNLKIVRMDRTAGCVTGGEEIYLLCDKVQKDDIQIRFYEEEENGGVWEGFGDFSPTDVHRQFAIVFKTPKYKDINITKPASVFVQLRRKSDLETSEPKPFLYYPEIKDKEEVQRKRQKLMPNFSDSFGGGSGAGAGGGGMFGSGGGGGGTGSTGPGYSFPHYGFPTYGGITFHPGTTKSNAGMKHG
Sequence of Nuclear factor NF-kappa-B complex (Q00653 1-454 limits assumed): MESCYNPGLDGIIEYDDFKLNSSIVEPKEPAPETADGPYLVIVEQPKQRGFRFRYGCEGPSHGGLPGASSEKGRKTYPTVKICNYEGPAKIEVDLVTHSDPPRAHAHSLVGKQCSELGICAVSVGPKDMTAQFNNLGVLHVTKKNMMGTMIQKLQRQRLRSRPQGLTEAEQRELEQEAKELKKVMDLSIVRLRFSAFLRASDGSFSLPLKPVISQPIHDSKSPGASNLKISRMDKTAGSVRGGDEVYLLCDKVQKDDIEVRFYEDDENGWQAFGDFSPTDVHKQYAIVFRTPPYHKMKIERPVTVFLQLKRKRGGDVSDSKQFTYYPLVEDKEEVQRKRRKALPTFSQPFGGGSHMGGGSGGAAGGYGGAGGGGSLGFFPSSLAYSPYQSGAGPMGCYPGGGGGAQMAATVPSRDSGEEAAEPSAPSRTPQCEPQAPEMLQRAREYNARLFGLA
Sequence of Nuclear factor NF-kappa-B complex (Q04206 whole entry): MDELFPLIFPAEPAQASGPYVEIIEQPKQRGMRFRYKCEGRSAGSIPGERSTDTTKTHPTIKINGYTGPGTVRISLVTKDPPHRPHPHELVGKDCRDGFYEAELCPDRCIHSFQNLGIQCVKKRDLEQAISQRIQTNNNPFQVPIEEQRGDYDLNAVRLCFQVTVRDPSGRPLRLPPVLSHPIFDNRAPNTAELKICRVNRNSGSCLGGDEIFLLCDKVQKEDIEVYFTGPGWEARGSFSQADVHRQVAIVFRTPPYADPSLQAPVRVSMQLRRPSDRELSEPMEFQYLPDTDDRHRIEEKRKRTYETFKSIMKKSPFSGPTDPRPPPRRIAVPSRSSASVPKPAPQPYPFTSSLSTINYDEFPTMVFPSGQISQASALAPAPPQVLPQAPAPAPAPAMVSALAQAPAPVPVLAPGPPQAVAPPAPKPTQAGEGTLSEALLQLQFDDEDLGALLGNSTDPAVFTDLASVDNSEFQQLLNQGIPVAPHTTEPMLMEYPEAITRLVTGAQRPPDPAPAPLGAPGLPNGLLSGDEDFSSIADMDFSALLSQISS

Molecule: CNC(=O)c1cc(-c2ccc(C#N)cc2)n(-c2ccc(Cl)cc2)n1
IC50 [1]: > 25 µM
inhibition [2]: 31%

Molecule: CN1CCC(O)CC1CNC(=O)c1cc(-c2ccc(Cl)cc2)n(-c2ccc(Cl)cc2)n1 (stereo unspecified)
IC50 [1]: 0.993 µM

Molecule: CN1CCCCC1CNC(=O)c1cc(-c2ccc(Cl)cc2)n(-c2ccc(Cl)cc2)n1 (stereo unspecified)
IC50 [1]: 0.521 µM

Molecule: O=C(NCCO)c1cc(-c2ccc(Cl)cc2)n(-c2ccc(Cl)cc2)n1
IC50 [1]: 6.55 µM

Molecule: CCN1CCC[C@@H]1CNC(=O)c1cc(-c2ccc(Cl)cc2)n(-c2ccc(Cl)cc2)n1
IC50 [1]: 2.1 µM

Molecule: CNC(=O)c1cc(-c2ccc(Cl)cc2)n(-c2cccc(Cl)c2)n1
inhibition [2]: 57%

Molecule: CN(C)CCNC(=O)c1cc(-c2ccc(Cl)cc2)n(-c2ccc(Cl)cc2)n1
IC50 [1]: 0.49 µM
IC50 [3]: 5.41 µM

Molecule: CNC(=O)c1cc(-c2ccc(Cl)cc2)n(-c2ccccc2Cl)n1
IC50 [1]: > 25 µM
inhibition [2]: 46%

Molecule: CNC(=O)c1cc(-c2ccc(Cl)cc2)n(C)n1
IC50 [1]: > 25 µM
inhibition [2]: 7.7%

Molecule: CN1CCOC[C@H]1CNC(=O)c1cc(-c2ccc(Cl)cc2)n(-c2ccc(Cl)cc2)n1
IC50 [1]: 2.01 µM

Molecule: CNC(=O)c1cc(-c2ccc(OC)cc2)n(-c2ccc(Cl)cc2)n1
IC50 [1]: 6.55 µM
inhibition [2]: 80%

Molecule: CNC(=O)c1cc(-c2ccc(OC)nc2)n(-c2ccc(Cl)cc2)n1
IC50 [1]: > 25 µM
inhibition [2]: 21%

Molecule: CNC(=O)c1cc(-c2cccc(Cl)c2)n(-c2ccc(Cl)cc2)n1
IC50 [1]: > 25 µM
inhibition [2]: 43%

Molecule: CS(=O)(=O)NCCNC(=O)c1cc(-c2ccc(Cl)cc2)n(-c2ccc(Cl)cc2)n1
IC50 [1]: 4.37 µM

Molecule: O=C(NCC1CCCCC1)c1cc(-c2ccc(Cl)cc2)n(-c2ccc(Cl)cc2)n1
IC50 [1]: > 25 µM

Molecule: CNC(=O)c1cc(-c2ccc(Cl)cc2)n(-c2ccccc2)n1
IC50 [1]: 19.8 µM
inhibition [2]: 59%

Molecule: CNC(=O)c1cc(-c2ccc(Cl)cc2)n(Cc2ccccc2)n1
IC50 [1]: 16.3 µM
inhibition [2]: 57%

Molecule: CN1CCCC(NC(=O)c2cc(-c3ccc(Cl)cc3)n(-c3ccc(Cl)cc3)n2)C1 (stereo unspecified)
IC50 [1]: 1.7 µM

Molecule: CNC(=O)c1cc(-c2ccc(F)cc2)n(-c2ccc(Cl)cc2)n1
IC50 [1]: > 25 µM
inhibition [2]: 47%

Molecule: CN(C)CCCNC(=O)c1cc(-c2ccc(Cl)cc2)n(-c2ccc(Cl)cc2)n1
IC50 [1]: 2.63 µM

B1: Mucosa-associated lymphoid tissue lymphoma translocation protein 1 (Homo sapiens), Q9UDY8 (protein)
chain: T1 sequence (Q9UDY8 whole entry)
Km [4]: 234 µM

Second part, the molecule after the results:

IC50 [1]: > 25 µM
inhibition [2]: 23%
Molecule: CNC(=O)c1cc(-c2ccccc2Cl)n(-c2ccc(Cl)cc2)n1

IC50 [1]: 1.98 µM
Molecule: NCCNC(=O)c1cc(-c2ccc(Cl)cc2)n(-c2ccc(Cl)cc2)n1

IC50 [1]: > 25 µM
Molecule: O=C(c1cc(-c2ccc(Cl)cc2)n(-c2ccc(Cl)cc2)n1)N1CCCC1

IC50 [1]: 7.01 µM
inhibition [2]: 72%
IC50 [3]: 9.34 µM
Molecule: CNC(=O)c1cc(-c2ccc(Cl)cc2)n(-c2ccc(Cl)cc2)n1

IC50 [1]: > 25 µM
inhibition [2]: 19%
Molecule: CNC(=O)c1cc(-c2ccc(CO)cc2)n(-c2ccc(Cl)cc2)n1

IC50 [1]: > 25 µM
inhibition [2]: 16%
Molecule: CNC(=O)c1cc(-c2ccoc2)n(-c2ccc(Cl)cc2)n1

IC50 [1]: 10.6 µM
Molecule: CN(C)C1CCN(C(=O)c2cc(-c3ccc(Cl)cc3)n(-c3ccc(Cl)cc3)n2)C1 (stereo unspecified)

IC50 [1]: 0.8 µM
Molecule: CNCCNC(=O)c1cc(-c2ccc(Cl)cc2)n(-c2ccc(Cl)cc2)n1

IC50 [1]: > 25 µM
inhibition [2]: 26%
Molecule: CNC(=O)c1cc(-c2ccsc2)n(-c2ccc(Cl)cc2)n1

IC50 [1]: 12.4 µM
Molecule: O=C(NCCCO)c1cc(-c2ccc(Cl)cc2)n(-c2ccc(Cl)cc2)n1

IC50 [1]: > 25 µM
Molecule: O=C(NCCc1ccccc1)c1cc(-c2ccc(Cl)cc2)n(-c2ccc(Cl)cc2)n1

IC50 [1]: 16.8 µM
inhibition [2]: 61%
Molecule: CNC(=O)c1cc(-c2ccccc2)n(-c2ccc(Cl)cc2)n1

IC50 [1]: > 25 µM
inhibition [2]: 20%
Molecule: CNC(=O)c1cc(-c2ccco2)n(-c2ccc(Cl)cc2)n1

IC50 [1]: 13.4 µM
Molecule: NC(=O)CCNC(=O)c1cc(-c2ccc(Cl)cc2)n(-c2ccc(Cl)cc2)n1

IC50 [1]: > 25 µM
inhibition [2]: 38%
Molecule: CNC(=O)c1cc(-c2ccc(OC(F)(F)F)cc2)n(-c2ccc(Cl)cc2)n1

IC50 [1]: > 25 µM
inhibition [2]: 47%
Molecule: CNC(=O)c1cc(-c2ccc(C(F)(F)F)cc2)n(-c2ccc(Cl)cc2)n1

IC50 [1]: > 25 µM
inhibition [2]: 5.7%
Molecule: CNC(=O)c1cc(-c2ccc(S(C)(=O)=O)cc2)n(-c2ccc(Cl)cc2)n1

IC50 [1]: 3.3 µM
Molecule: CC(=O)NCCNC(=O)c1cc(-c2ccc(Cl)cc2)n(-c2ccc(Cl)cc2)n1

IC50 [1]: 21.2 µM
Molecule: CN(C)C(=O)c1cc(-c2ccc(Cl)cc2)n(-c2ccc(Cl)cc2)n1

inhibition [2]: 63%
Molecule: CNC(=O)c1cc(-c2ccc(Cl)cc2)n(C2CCCCC2)n1

IC50 [1]: 2.22 µM
Molecule: CN(C)CCCCNC(=O)c1cc(-c2ccc(Cl)cc2)n(-c2ccc(Cl)cc2)n1

IC50 [1]: 3.43 µM
Molecule: CSc1ccc2c(c1)N(CCC1CCCCN1C)c1ccccc1S2 (stereo unspecified) [THIORIDAZINE]

IC50 [1]: 7.39 µM
Molecule: NCCCNC(=O)c1cc(-c2ccc(Cl)cc2)n(-c2ccc(Cl)cc2)n1

IC50 [1]: 0.819 µM
Molecule: O=C(NCC1COCCN1)c1cc(-c2ccc(Cl)cc2)n(-c2ccc(Cl)cc2)n1 (stereo unspecified)
